{"source": "patent US7919077B2", "about": "“Pharmaceutical compositions comprising CCL2 and use of same for the treatment of inflammation” (Yeda Research and Development Co. Ltd., priority 2006, dated 2011)", "key": {"[1]": {"assay": "Adjuvant arthritis (AA) rat model", "format": "in vivo, Lewis rats", "details": "rats; CCL2 240 ng daily day 0 to day 5; scored from day 10; FIG. 9", "procedure": "Adjuvant Arthritis (AA) induction, assessment and treatment with CCL2-—AA was induced as previously described [Kannan, Theor Biol Med Model. (2005) 2:17] using 1 mg per rat of heat-killed Mt strain H37Ra (Difco). Each experimental and control group included at least eight rats. The day of AA induction was designated as day 0 and disease severity was assessed by direct observation of all four limbs in each animal. An observer blind to the experimental procedure scored AA for clinical manifestation of disease. A relative score between 0 and 4 was assigned to each limb, based on the degree of joint inflammation, redness and deformity. The maximum possible score for an individual animal was 16 [Kannan, supra].\nImmediately following AA induction, rats were divided into two groups that were injected daily (from day 0 to day 5) with low dose CCL2 (240 ng in 300 μl of PBS) or PBS as control. Starting from day 10 post induction, the disease was scored as described hereinabove.\nResults were presented as the mean±SEM of the difference between the two values for all the animals in each group. Experiments were repeated at least three times and produced similar results."}, "[2]": {"system": "effector (Th1, Th2) T cells", "assay": "Cytoskeleton rearrangement (actin polymerization), effector T cells", "format": "cell-based, mice", "details": "CCL2 0.1 ng/ml", "procedure": "T cell sorting—Spleen and […] were obtained from mice as previously described [Shachar I. and Flavell R. A., Science 274:106 (1996)]. T cells were enriched using the MACS system (Miltenyi Biotec, Auburn, Calif.) according to the manufacturer's protocol. Spleen cells were incubated with anti-CD45R (B220) magnetic beads (Miltenyi Biotec, Auburn, Calif.) and the CD45 negative cells were collected. CD4+ T cells were enriched using anti-CD4 magnetic beads (Miltenyi Biotec, Auburn, Calif.). […]\nCytoskeleton rearrangement—T cells were pre-incubated for 30 minutes in the presence or absence of CCL2 (0.1 ng/ml), and then stimulated with either CXCL12 (0.1 mg/ml PeproTech, Inc., Rocky Hill N.J.) or SLC (CCL21, 0.4 mg/ml, PeproTech, Inc., Rocky Hill, N.J.), for 15 seconds. Cells were then immediately fixed with paraformaldehyde, permeabilized and their intracellular F-actin was stained with FITC-phalloidin (Sigma-Aldrich, St. Louis, Mo.), and then analyzed by flow cytometry to determine the state of their cytoskeleton, as previously described [Flaishon, L. F., et al., J. Biol. Chem. 276:46701 (2001)]."}, "[3]": {"assay": "OVA sensitization and challenge mouse asthma model", "format": "in vivo, BALB/c mice", "details": "OVA-challenged mice", "procedure": "Ovalbumin (OVA) sensitization, challenge and treatment with CCL2—OVA sensitization and challenge were effected following a previously described protocol [Flaishon, L., et al., J. Immunol: Cutting edge 168: 3707 (2002)], BALB/c mice (average: 9 mice/group) were sensitized for OVA by intraperitoneal injections with 100 μg of chicken egg ovalbumin (OVA; Sigma-Aldrich, St. Louis, Mo.) mixed with 2 mg of aluminum hydroxide (Pierce, Rockford, Ill.) in 300 μl PBS (control group mice were injected with PSB alone). Injections were given on day 0, 7, and 14. 15 days after initial sensitization, and following, animals were challenged daily for 5 days (days 15-19) by inhaling 4% OVA in PBS, administered by an ultrasonic nebulizer (DeVilbiss, Somersel, Pa.) for 20 minutes, while the control group was challenged with PBS alone.\nOne of the groups injected and challenged by OVA was additionally injected i.p. with 300 μl PBS from the first day of OVA inhalation (day 15), for 5 days 20 minutes before each inhalation, and another group was additionally injected with murine CCL2 (60 ng CCL2 per animal per day). PBS-treated control group was PBS challenged and PBS injected. On day 18, 2 hours following inhalation, mice were anesthetized by an i.p. injection of 0.2 ml Ketamine/xylazine, and airway hyper-responsiveness (AHR) was determined by calculating the enhanced respiratory pause (Penh), a function of the ratio of peak expiratory flow to peak inspiratory flow and a function of the timing of expiration, measured in a plethysmographic box during expiration. Delta Penh was calculated by subtracting control Penh measurements, before antigen challenge, from the Penh measurements after antigen challenge. […] On day 19 the mice were sacrificed 2 hours after the last inhalation.\nLung histology—Lungs from mice participating in the OVA sensitization and challenge assay were inflated with 1 ml of 10% formalin until distended. Samples for paraffin sectioning were immersed in 10% formalin and fixed for 48 hours. The tissues were then embedded in paraffin and 2-3 micrometer sections were prepared. […]"}, "[4]": {"system": "naïve T cells", "assay": "Tracking of cells in vivo: homing of naïve T cells to LN and spleen", "parameters": "species or system C57BL/6 mice", "details": "cells pre-incubated 30 min with CCL2 0.1 ng/ml, injected i.v., 3 hours, vs control", "procedure": "Tracking of cells in vivo—T cells pre-incubated for 30 minutes in the presence or absence of CCL2 (0.1 ng/ml RPMI) were washed, and labeled with […] of the fluorescent dye CFDA-SE (Molecular Probes/Invitrogen, Carlsbad, Calif., USA) for 15 minutes at room temperature. Thereafter, an equal amount (0.33×10^7) of CCL2-treated or -untreated cells were injected i.v. into C57BL/6 mice. After 3 hours, LNs and spleens were collected and the FITC-positive population was analyzed by FACS. The proportion of labeled cells recovered in the LN and spleen was determined as previously described [Flaishon, L. R., J. Exp. Med. 192:1381 (2000)] in four different experiments (10 mice in each group)."}}, "data": [{"substance": "CCL2: mammalian (e.g., human) CCL2 protein, GenBank NM_002982 / NP_002973; murine CCL2 used in the asthma model", "values": [{"measurement": "adjuvant arthritis disease score (max 16)", "setting": "[1]", "value": "significantly inhibited the onset of the disease"}, {"measurement": "CCL21 induced cytoskeleton rearrangement of effector cells", "setting": "[2]; CCL21 0.4 mg/ml 15 seconds", "value": "down-regulated"}, {"measurement": "CXCL12 induced cytoskeleton rearrangement of effector cells", "setting": "[2]; CXCL12 15 seconds", "value": "down-regulated"}, {"measurement": "peribronchial and perivascular inflammatory infiltrate (inflammatory score 1-4)", "setting": "[3]; CCL2 60 ng per day i.p., FIG. 8e", "value": "significantly reduced"}, {"measurement": "histological changes in the lungs", "setting": "[3]; CCL2 60 ng per day i.p., FIG. 8d", "value": "barely detectable"}, {"measurement": "airway responsiveness (delta Penh) to antigen challenge", "setting": "[3]; murine CCL2 60 ng per animal per day i.p. for 5 days, FIG. 8a", "value": "no airway hyperactivity was observed"}, {"measurement": "reduction in homing of naïve T cells into the LN", "setting": "[4]; FIG. 4a", "value": 50, "unit": "%"}, {"measurement": "migration of T cells to the spleen", "setting": "[4]; FIG. 4b", "value": "no difference"}]}]}
